Entries after “also recorded” stand apart in the source; their conditions may differ. Bridges are numbered along the chain shown (N, C = ends). Where no end group is shown, it is not given here.
Experiments:
spinal cord slice model = test: Spinal cord slice model; details: data not shown
DRG neurons = test: Confocal microscopy of PAL probe binding in DRG cell cultures, spinal nerve ligation model; format: cell-based, Sprague Dawley rats
Text: LAT9991-PAL was used in conjunction with confocal microscopy to visualise the location of potential target(s), noting that analgesic agents can have activity at several sites, either on central or peripheral neurons, or on glial or inflammatory cells that are in proximity to neurons. To identify the cell types to which LAT9991-PAL binds, 3-day cell cultures of DRG from neuropathic or control sites were taken from animals with neuropathy due to spinal nerve ligation. Briefly, L5 and L6 spinal nerves of male Sprague Dawley rats were ligated to create a robust and long-lasting mechanical allodynia of the injured hind paw. Presence of neuropathic pain was confirmed 2 weeks post-spinal nerve ligation surgeries (day 14) using von Frey (VF) filaments (up-and-down method) applied on ipsilateral (injured) and contralateral (non-injured) paw). Live DRG cells were dissected out as described previously and incubated with LAT9991-PAL for 1 hour prior to UV irradiation to fix the binding in situ. […] As a specificity control, the binding of LAT9991-PAL to the neuropathic DRG was blocked in the presence of an excess amount of unlabeled LAT9991 peptide.

[1] = test system: tissue homogenates of nerve from neuropathic animals; test: PAL cross-linking to nerve tissue homogenates and gel separation; format: binding
Text: Using a ligand driven approach, the present inventors utilized the photo-activatable cross-linking PAL from Evotec A.G. (Photo-Activated Labelling) technology that derivatizes the active cyclic peptides to allow UV-induced cross-linking to binding targets (described herein as peptide/SEQ ID NO:X-PAL). This allows subsequent detection in cells, gels of tissue isolates or in pull-down of the peptide/target complex for sequencing by mass spectroscopy (PALMS).
LAT9991-PAL was cross-linked to tissue homogenates of nerve from neuropathic animals.

A549 cells = test: Confocal imaging of LAT9991F-PAL binding and LANCL1 co-localization, with siRNA knockdown and competitors, in A549 cells; format: cell-based; details: SiLANCL1 A549 cells; competitor 25 μM
Protocol: (§1) A photoactivatable analog of LAT8881 (LAT9991F (SEQ ID NO:13)-PAL), was used to conduct the experiments. A549 or NCI-H358 cells were treated with LAT9991F-PAL at 2.5 μM during 30 minutes. Fluorescent signal was recorded after that LAT9991F-PAL was immobilized on its target(s) site by UV-crosslinking and the LAT9991F-PAL-target complexes were labeled with the green-fluorescent Alexa Fluor 488 alkyne dye by click-chemistry. Control cells were treated with the vehicle, dimethyl sulfoxide (DMSO), and with LAT9991F-PAL in combination with a large excess of the parent drug LAT8881 or other competitors, GSH, NSC61610 or ABA to evaluate, respectively, the non-specific fluorescent background and the specificity of the staining. For colocalization experiments, subsequently, immunofluorescence staining with an anti-LANCL1 or LANCL2 antibodies and an Alexa 568 (red) conjugated secondary antibody was performed. Images stacks of cells labeled with probes were collected and evaluated for the degree of colocalization of LAT9991F-PAL-target complexes and LANCL1 or LANCL2 using either the Measure Colocalization plugin in Metamorph or the JACoP plugin in ImageJ).
(§2) A549 or NCI-H358 cells (ATCC CCL-185 and ATCC CRL-5807, respectively) were cultured in appropriate medium containing 10% heat-inactivated FBS (Dutscher, #SV30160-036), 1% penicillin/streptomycin (Gibco, #15140-122) and maintained in a humidified 37° C. incubator with 5% CO2.
(§3) LAT9991F-PAL was dissolved in DMSO to make a 10 mM stock solution. Intermediate solutions at 25 μM and 2.5 μM were made in the culture medium from the 10 mM stock solutions of LAT8881 and LAT9991F-PAL, respectively. A two-fold dilution into PBS of each intermediate solution was used for cell treatment. A stock solution at 10 mM was prepared for the other competitors as GSH, NSC61610 and ABA. A final concentration at 25 μM was used for the assay.
(§4) A549 or NCI-H358 cells were seeded onto ibidiTreat Polymer Coverslips (Ibidi, #80826) at 2.5×10^5 cells/cm^2 in 200 μl of complete medium. After 24 hours, the medium was removed and cells were washed with PBS (Gibco, #10010049) and then pre-treated with the Taxol at 1 μM for 3 hours or with H2O2 25 μM for 2 hours. Cells were washed twice with PBS. Induced stress cells or control cells were then exposed to LAT9991F-PAL (2.5 μM) in PBS for 30 minutes, in the presence or absence of LAT8881 (25 μM), or the other compounds used as a competitor, and pre-incubated 10 minutes. After treatment, cells were washed with cold PBS and UV-irradiated (365 nm) in PBS for 20 min. After fixation with 4% paraformaldehyde and permeabilization (0.5% Triton/PBS) (Image-iT™ Fixation/Permeabilization Kit, ThermoFisher, #R37602), the bioorthogonal reaction with Alexa Fluor 488 Alkyne (1 μM) (ThermoFisher, #A10267) was performed at 25° C. using the Click-iT™ Cell Reaction Buffer Kit (ThermoFisher, #C10269) according to the manufacturer protocol. After click reaction, cells were washed twice with PBS, blocked with 3% BSA in PBS for 1 hour and stained with Hoechst 33342 dye (ThermoFisher, #H1399).
(§5) For colocalization experiments, cells were further incubated overnight at 4° C. with a mouse anti-LanCL1 antibody (Invitrogen, PAS-57-107) (dilution 1:1000) or LanCL2 (Atlas Antibodies HPA019711) (dilution 1:1000) in 3% BSA in PBS, washed twice with PBS, and then incubated respectively with a goat anti-mouse […] (Molecular Probes, #A21467) (dilution 1:800) for 1 h in 3% BSA in PBS. After three further washing steps with PBS, cells were embedded in Ibidi Mounting Medium (ibidi, #50001). The specimens were kept at 4° C. in the dark until analysis.
Images were acquired on an Axiovert200M (Zeiss) microscope using a CSU-W1 Yokogawa confocal unit. This microscope is equipped with a plan Apochromat X40 dry objective numerical aperture (NA) 0.95 and a Neofluar X100 oil immersion objective NA 1.45. Images were capture with an EMCCD camera (Prior, ProEM 1024×1024).

NCI-H358 cells = test: Confocal imaging of LAT9991F-PAL binding and LANCL1 co-localization, with siRNA knockdown and competitors, in NCI-H358 cells; format: cell-based; details: SiLANCL1 NCI-H358 cells; competitor 25 μM
Protocol: as §1, §2, §3
ibidiTreat Polymer Coverslips (Ibidi, #80826) were coated with serum during 1 hour at 37° C., followed by Laminin (100 μg\ml) (incubation for 1 hour at 37° C.) for NCI-H358 cells.
as §4, §5
Images were acquired on an Axiovert200M (Zeiss) microscope using a CSU-W1 Yokogawa confocal unit.

Substance	Activity on the spinal cord slice model (spinal cord slice model)	Subcellular location of the target stained by PAL probe (DRG neurons; high-powered imaging, neurons from neuropathic animals (FIG. 2))	Localisation of PAL probe in DRG cell cultures (DRG neurons; neuropathic vs unaffected DRG, 1 hour incubation before UV irradiation)	Cross-linking of PAL probe to tissue homogenates of nerve from neuropathic animals [1]	Molecular weight ranges of targets stained after gel separation ([1]; FIG. 3 legend, LAT9991-PAL 5 μM)	Molecular weight ranges of targets stained after gel separation ([1]; PAL probe cross-linked to nerve homogenates)	Competition of LAT9991F-PAL binding by excess competitor (A549 cells)	Competition of LAT9991F-PAL binding by excess competitor (NCI-H358 cells)
LAT9991-PAL: cyclic peptide of SEQ ID NO:12 (LAT9991) conjugated to the PAL (Photo-Activated Labelling) grouping (CRSVEGSCG; disulfide 1-8 (inferred); also: PAL group on N-terminal Cys-Arg part)	fully active	expressed just inside the neuronal cell membrane, and with punctate staining in the cytoplasm	localised only in neurons from neuropathic DRG and not from unaffected DRG	cross-linked; also recorded: shown to cross-link	12-15 kDa, 37 kDa and 40-50 kDa	˜12-15 kD, ˜37 kD and ˜50 kD	–	–
YLRIVQCRSVEGSCGF [LAT8881, a cyclic peptide fragment of human growth hormone]	–	–	–	–	–	–	partially competed off	partially competed off
